Here are results for 1 compound from publication PMC11206988, “Study on the Effect of Pharmaceutical Excipient PEG400 on the Pharmacokinetics of Baicalin in Cells Based on MRP2, MRP3, and BCRP Efflux Transporters” (Pharmaceutics, 2024).

Data set [1] relates to MDCK II-WT, MDCK II-MRP2, MDCK II-BCRP and MDCK II-MRP3 cells. In words: MTT cell proliferation assay. It is filed as cell-based. The conditions noted are these: experimentally selected concentrations. From the text:
The effect of PEG400 on baicalin transport was investigated in MDCKII-WT, MDCKII-MRP2, MDCK II-BCRP, and MDCK II-MRP3 cell monolayer models. First, an MTT cell proliferation assay was used to evaluate the effects of baicalin as well as PEG400 concentration on […]. […] The results of the transporter experiments are shown in Figure 5 and Table 2, which indicate that the exocytosis ratio of MDCKII-WT cells in the control group for the transport of the substrate baicalin was 2.58 ± 0.27. This implies that the transport of baicalin through the cell membrane is mediated by a transporter. For the MDCK-WT cell model, the exocytosis ratios of baicalin decreased to 1.94 ± 0.27, 1.53 ± 0.14, and 1.19 ± 0.12, respectively, in response to low, medium, and high concentrations of PEG400. […] Consistent results were obtained in the MDCK II-MRP2 and MDCK II-BCRP cell models, where the percentage of baicalin efflux was reduced, from 2.45 ± 0.04 and 3.01 ± 0.05 to 2.22 ± 0.17, 1.08 ± 0.09, and 0.8 ± 0.04, respectively, and 1.59 ± 0.06, 1.02 ± 0.04, and 0.8 ± 0.02 in a concentration-dependent decrease. The results of the efflux ratio of baicalin in MDCK-WT, MDCK-MRP2, and MDCK-BCRP cell monolayers by 0.25%, 0.5%, and 1% PEG400 are shown in Figure 5f.
Figure 4 The effect diagram of cell vitality. (a,b) The effects of different concentrations of baicalin and PEG400 on the survival of MDCK II-WT cells. […]
In general terms: Formazan colour is commonly taken as a measure of viable cells.

In another data set the target is T1, MDCK II-MRP3 (Homo sapiens, UniProt O15438).
T1 construct: host or cells: MDCK II
T1 sequence (O15438 whole entry): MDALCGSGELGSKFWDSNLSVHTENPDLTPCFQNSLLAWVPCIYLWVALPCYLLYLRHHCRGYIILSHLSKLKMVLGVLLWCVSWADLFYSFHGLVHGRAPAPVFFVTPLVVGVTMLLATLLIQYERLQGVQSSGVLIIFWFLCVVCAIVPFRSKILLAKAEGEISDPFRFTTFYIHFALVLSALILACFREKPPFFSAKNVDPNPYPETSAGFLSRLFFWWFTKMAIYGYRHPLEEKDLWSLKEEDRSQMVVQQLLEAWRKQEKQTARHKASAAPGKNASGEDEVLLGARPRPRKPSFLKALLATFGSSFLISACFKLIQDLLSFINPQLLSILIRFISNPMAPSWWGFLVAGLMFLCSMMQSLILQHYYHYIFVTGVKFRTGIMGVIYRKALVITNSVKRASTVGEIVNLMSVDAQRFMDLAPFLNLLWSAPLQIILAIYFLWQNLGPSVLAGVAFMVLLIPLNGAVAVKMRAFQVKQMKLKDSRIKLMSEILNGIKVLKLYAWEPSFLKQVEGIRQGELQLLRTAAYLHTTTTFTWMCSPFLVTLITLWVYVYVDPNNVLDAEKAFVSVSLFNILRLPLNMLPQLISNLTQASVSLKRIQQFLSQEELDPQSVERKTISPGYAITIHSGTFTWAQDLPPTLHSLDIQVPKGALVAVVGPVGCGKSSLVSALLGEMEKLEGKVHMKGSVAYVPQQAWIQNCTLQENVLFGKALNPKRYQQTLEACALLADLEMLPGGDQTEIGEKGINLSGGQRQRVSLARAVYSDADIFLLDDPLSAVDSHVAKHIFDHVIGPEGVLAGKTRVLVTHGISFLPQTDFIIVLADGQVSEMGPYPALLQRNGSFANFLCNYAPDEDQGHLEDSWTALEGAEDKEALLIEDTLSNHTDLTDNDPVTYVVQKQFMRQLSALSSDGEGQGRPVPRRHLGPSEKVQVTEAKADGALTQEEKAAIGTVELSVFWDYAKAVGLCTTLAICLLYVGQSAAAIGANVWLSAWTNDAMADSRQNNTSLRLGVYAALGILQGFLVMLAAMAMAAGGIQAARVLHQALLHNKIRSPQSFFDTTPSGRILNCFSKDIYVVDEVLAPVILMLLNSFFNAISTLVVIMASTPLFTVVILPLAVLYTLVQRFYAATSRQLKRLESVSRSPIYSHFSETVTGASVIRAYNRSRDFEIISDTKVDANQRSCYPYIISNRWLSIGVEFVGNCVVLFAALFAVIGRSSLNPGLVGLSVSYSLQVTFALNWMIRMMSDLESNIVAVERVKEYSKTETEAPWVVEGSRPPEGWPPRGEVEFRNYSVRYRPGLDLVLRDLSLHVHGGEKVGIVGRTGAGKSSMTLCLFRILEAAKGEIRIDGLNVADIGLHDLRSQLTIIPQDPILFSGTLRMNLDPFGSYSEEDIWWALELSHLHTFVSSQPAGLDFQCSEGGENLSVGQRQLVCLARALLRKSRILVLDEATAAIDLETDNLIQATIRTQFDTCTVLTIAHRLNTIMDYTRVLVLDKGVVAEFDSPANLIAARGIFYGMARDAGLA
In words: Transport of baicalin across MDCK II-MRP3 cell monolayer (transwell). It is filed as in vitro ADME. The conditions noted are these: MDCK II-MRP3; high-concentration PEG400 group vs control group. Here is the method:
(§1) The cells were inoculated at a density of 0.5 mL (1 × 10^5) in the upper layer of the transwell plate (AP side), and the culture was changed daily after the lower layer was added with 1.5 mL of complete medium without cells every other day. After 5–7 days of growth, the supernatant was aspirated and discarded, and the cell monolayer was rinsed twice with 37 °C Hank’s Balanced Salt Solution (HBSS, pH 7.4). The electrical resistance of the cell monolayer compartments was measured with a resistivity meter (TEER), and the integrity of the cell monolayer was monitored using TEER. The differentiation of MDCK II-WT, MDCK II-MRP2, MDCK II-MRP3, and MDCK II-BCRP cells was examined by determining sodium fluorescein permeability prior to transit experiments. This was done in order to determine the integrity of the cell monolayer. When the TEER value of the cell monolayer was greater than 150 Ω·cm^2 and the MDCK II-MRP2, MDCK II-MRP3, and MDCK II-BCRP sodium fluorescein permeability was less than 0.5 × 10^−6 cm/s or the MDCK II-WT sodium fluorescein permeability was less than 1 × 10^−6 cm/s, the cell monolayer was considered intact and suitable for transit experiments. TEER = (TEERcell monolayer − TEERblank) × Aarea(1) wherein TEERcell monolayer is the resistance of the cell monolayer read directly from the Millicell ERS-2 resistivity meter, and TEERblank is the resistance read by inserting a blank HBSS (no cells) only. Aarea is the surface area of the filter membrane, 1.12 cm^2.
(§2) In this experiment, a 100 μM baicalin solution (dissolved in HBSS) containing different concentrations of PEG400 (0.25%, 0.5%, and 1%) was employed as the test solution, while a solution without PEG400 was used as the blank test solution, which was added to AP or BL chambers, respectively. In the top to basolateral (AP-BL) transport experiment, the 0.5 mL sample added to the apical side (AP) was utilized as the supply room, and the HBSS preheated to 1.5 mL 37 °C was added to the basolateral (BL) as the receiving chamber. Conversely, in the basal low lateral to top (BL-AP) transport experiment, the 1.5 mL sample (dissolved in HBSS) was added to the BL side as the supply room, and the 0.5 mL preheated HBSS was added as a receiving room on the AP side. Once the aforementioned steps had been completed, the transwell was placed on a 37 °C thermostatic oscillator at 60 r/min, and 100 μL was withdrawn from the receiving cell or 10 μL from the supply chamber at 30, 60, 90, and 120 min, depending on the experiment, and replenished with an equal volume of blank 37 °C preheated HBSS. The samples were utilized to precipitate the proteins with 100 μL of methanol containing the internal standard for 10 min. After centrifugation at 16,000× g for 15 min at 4 °C, the supernatant was collected in a volume of 70 μL. The contents were determined by UPLC-MS/MS, and apparent permeability coefficients (PAPP) and efflux ratios (ER) were calculated.
(§3) The formulas for calculating Papp and ER of monolayer and monolayer are as follows:(2) Papp=dQ/dt/AC0 wherein dQ/dt (ng/mL·s) is the transit rate (ng/mL·s); A is the membrane area (1.12 cm^2); and C0 (ng/mL) is the initial concentration of the sample in the supply chamber. ER = PappBL-AP/PappAP-BL (3) wherein PappBL-AP is the apparent permeability coefficient when the BL is added to the sample, and PappAP-BL is the apparent permeability coefficient when the sample is added at the top side (AP).

The next data set has as its target T2, MRP3 (Homo sapiens, UniProt O15438).
T2 construct: host or cells: MDCK II
The description is as above. It counts as in vitro ADME. The settings on record: human, pH 7.4, MDCK II-MRP3. On the procedure: as §1, §2, §3

T2 sequence (O15438 whole entry): as above

The term Papp A→B denotes how fast a substance crosses the layer from the apical side. One may read the Papp B→A as how fast a substance crosses the layer from the basolateral side. For the compound `O=C(O)[C@H]1O[C@@H](Oc2cc3oc(-c4ccccc4)cc(=O)c3c(O)c2O)[C@H](O)[C@@H](O)[C@@H]1O` [BG, Baicalein-7-O-β-D-glucuronide], the “effect on cell proliferation (MTT)” value in data set [1] was “no significant effect on the proliferation”. For the same compound, the “increase in the PAPPAP-BL/PAPP BL-AP ratio” value at MDCK II-MRP3 is 5.97 fold. The apical-to-basolateral permeability (Papp A→B) at 120 min, 100 μM was 1.06 ± 0.16 ×10⁻⁶ cm/s at MRP3 (100 μM BG + 0.25% PEG400), 1.77 ± 0.2 ×10⁻⁶ cm/s at MRP3 (100 μM BG + 0.5% PEG400), 2.65 ± 0.44 ×10⁻⁶ cm/s at MRP3 (100 μM BG + 1% PEG400) and 0.74 ± 0.1 ×10⁻⁶ cm/s on MRP3 (100 μM BG alone). Moreover, the Papp B→A at 120 min, 100 μM at MRP3 (100 μM BG + 0.25% PEG400) came out at 1.04 ± 0.08 ×10⁻⁶ cm/s; on MRP3 (100 μM BG + 0.5% PEG400), 0.85 ± 0.1 ×10⁻⁶ cm/s; on MRP3 (100 μM BG + 1% PEG400) it was 0.72 ± 0.16 ×10⁻⁶ cm/s; on MRP3 (100 μM BG alone) it was 1.18 ± 0.08 ×10⁻⁶ cm/s.
